We go through four molecules from patent EP0403398A1, “New thioformamide derivatives” (RHONE-POULENC SANTE, priority 1989, dated 1990).

This assay deals with isolated rat aorta. As to the kind of experiment: Test A: activity against contractions induced by low K+ concentrations in the isolated rat aorta. The settings on record: concentration reducing the 20mM K⁺-induced contraction by 90%; rat thoracic aorta strips denuded of endothelium, Krebs solution, cumulative concentrations; read-out: Activity Test A EC₉₀. The method, then: The test methods used were adapted from those described by Winslow et al [Eur.J.Pharmacol., 131, 219-228 (1986)] and Karaki [J.Pharmacol. Methods, 18, 1-21 (1987)] for differentiating vaso-relaxant activity. Test A : Activity against contractions induced by low K⁺ concentrations in the isolated rat aorta Thoracic aorta was removed from rats and transverse strips, denuded of endothelium, were suspended in a bath containing Krebs solution. The tension was recorded and a contraction induced by addition of 20mM K⁺ (potassium ion) to the bathing solution. The test compound was added to the bath as a solution in increasing cumulative concentration. The concentration in the bathing solution of the test compound which reduced the K⁺-induced contraction by 90% was determined and expressed in µM as the effective concentration (EC₉₀), given in Table I. Table I

As for `CNC(=S)[C@]1(c2cccnc2)CCCC[C@H]1NOCc1ccccc1` (racemic) [AA, (±)-trans-2-benzyloxyamino-N-methyl-1-(3-pyridyl)cyclohexanecarbothioamide], the EC90 worked out at 3 nM.
`CNC(=S)[C@]1(c2cccnc2)CCCC[C@H]1N[C@H](C)c1cccc2ccccc12` [BE, (2R,1S)-2-[(R)-1-(1-naphthyl)ethylamino] 1-(3-pyridyl)cyclohexane-N-methylcarbothioamide]: the EC90 worked out at 3 nM.
Consider `CNC(=S)[C@]1(c2cccnc2)CCCC[C@H]1NOC` (racemic) [Compound AB, (±)-trans-2-methoxyamino-N-methyl-1-(3-pyridyl)cyclohexanecarbothioamide], for which the EC90 was 300 nM.
For `CNC(=S)[C@]1(c2cccnc2)CCCC[C@H]1N[C@H](C)c1ccccc1` [BD, (2R,1S)-2-[(R)-1-phenylethylamino]-1-(3-pyridyl)cyclohexane-N-methylcarbothioamide], the EC90 was 0.03 nM.
